Experimental data from ChEMBL document CHEMBL5260832, “Hepatoprotective natural triterpenoids” (Eur J Med Chem, 2018).

How the values were obtained:
L02 = assay: Protection against D-GalN-induced cell damage in human L02 cells […] assessed as reduction in cell viability […]; type: functional, cell-based
[1] = Hepatoprotective activity against D-GaIN - induced toxicity in rat WB-F344 cells assessed as inhibition of cell growth relative to control; type: functional; parameters: scale not given: the % may be the effect or the level left
[2] = Hepatoprotective activity against D-Galactosamine-induced toxicity in rat WB-F344 cells assessed as cell survival rate at 10 uM relative to control; type: functional
[3] = Hepatotoxicity in rat assessed as reduction in GPT level at 0.01 mg/mL measured after 48 hrs (reference value: 291 IU/L); type: toxicity; settings: in vivo
Mus musculus [4] = species: Mus musculus; assay: Hepatoprotective activity against D-GaIN-induced liver injury mouse model assessed as cell death with increasing cell survival rates at 10 uM relative to control; type: functional
Hepatocyte [5] = assay: Hepatoprotective activity against CCL4-induced rat hepatocyte toxicity assessed as decrease in ALP level at 3.33 mg/mL preincubated for 30 mins followed by CCL4 addition and measured after 180 mins by colorimetric method; type: functional; settings: time 210 min, 3.5 h
Hepatocyte [6] = assay: Hepatoprotective activity against CCL4-induced rat hepatocyte toxicity assessed as decrease in GPT level at 3.33 mg/mL preincubated for 30 mins followed by CCL4 addition and measured after 180 mins by colorimetric method; type: functional; settings: time 210 min, 3.5 h
Hepatocyte [7] = assay: Hepatoprotective activity against CCL4-induced rat hepatocyte toxicity assessed as decrease in GOT level at 3.33 mg/mL preincubated for 30 mins followed by CCL4 addition and measured after 180 mins by colorimetric method; type: functional; settings: time 210 min, 3.5 h
Rattus norvegicus = assay: Hepatoprotective activity in GaIN-induced rat model of liver injury assessed as reduction in ALT level at 4 mg/kg relative to control; type: functional; parameters: scale not given: the % may be the effect or the level left
Mus musculus [8] = assay: Hepatoprotective activity against D-GaIN/CCl4 induced liver injury mouse model assessed as reduction in GPT level at 1.0 microg/ml, iv relative to control; type: functional; parameters: scale not given: the % may be the effect or the level left; settings: dose 1 µg/ml
Mus musculus [9] = assay: Hepatoprotective activity in mouse model of D-GaIN/LPS-induced liver injury assessed as inhibition of sALT level secretion at 100 mg/kg, po relative to control; type: functional
Hepatocyte [10] = assay: Hepatoprotective activity against D-GaIN-induced toxicity in mouse hepatocyte relative to control; type: functional, cell-based
Mus musculus [11] = assay: Hepatoprotective activity in mouse model of D-GaIN/LPS-induced liver injury assessed as inhibition of sAST secretion at 100 mg/kg, po relative to control; type: functional
Hepatocyte [12] = assay: Hepatoprotective activity against D-GaIN/TNFalpha-induced cell death in mouse hepatocyte at 100 uM; type: functional, cell-based
[13] = Hepatotoxicity in rat assessed as reduction in GPT level at 1.0 mg/mL measured after 48 hrs (reference value: 291 IU/L); type: toxicity; settings: in vivo
Hepatocyte [14] = assay: Hepatoprotective activity against D-GaIN/TNFalpha-induced cell death in mouse hepatocytes at 50 uM assessed as inhibition of cell death relative to control; type: functional; parameters: scale not given: the % may be the effect or the level left
Hepatocyte [15] = assay: Hepatoprotective activity against D-GaIN/TNFalpha -induced cell death in mouse hepatocyte assessed as inhibition at 50 uM relative to control; type: functional; parameters: scale not given: the % may be the effect or the level left

`CC(=O)O[C@H]1[C@@H]2O[C@@]3(C(C)(C)O)CC[C@](C)(O3)C2[C@@]2(CO)CC[C@@]34C[C@@]35CC[C@H](O[C@@H]3OC[C@@H](O)[C@H](O)[C@H]3O)C(C)(C)C5CC[C@H]4[C@]12C` (stereo partly specified) gave an EC50 (L02) of 74.1 µM.
`CC1(C)CC[C@]2(C(=O)O[C@@H]3O[C@H](CO)[C@@H](O)[C@H](O)[C@H]3O[C@@H]3OC[C@@H](O)[C@H](O)[C@H]3O)CC[C@]3(C)C(=CC[C@@H]4[C@@]5(C)C[C@@H](O)[C@@H](O)[C@@](C)(CO)[C@@H]5CC[C@]43C)[C@@H]2[C@@H]1O` showed an Activity [1] of 64% and an Activity [2] of 64%.
`C[C@@]1(CO)CC[C@]2(C(=O)O[C@@H]3O[C@H](CO[C@@H]4O[C@H](CO)[C@@H](O)[C@H](O)[C@H]4O)[C@@H](O)[C@H](O)[C@H]3O)CC[C@]3(C)C(=CC[C@@H]4[C@@]5(C)CC[C@H](O[C@@H]6O[C@H](CO)[C@@H](O)[C@H](O)[C@H]6O)[C@@](C)(C(=O)O)[C@@H]5CC[C@]43C)[C@@H]2C1` gave an Activity [3] of 215 IU/L.
With `CC(=O)O[C@H](C/C=C(/C)C(=O)O)[C@@H](C)[C@H]1CCC2(C)[C@@H]3CC[C@H]4C(C)(C)C(=O)CC[C@@]45C[C@@]35CC[C@]12C` (stereo partly specified) the Activity (Mus musculus [4]) was 30.8%.
For `CC(=O)O[C@H]1CC[C@]2(C)[C@H]3CC=C4[C@@H]5CC(C)(C)CC[C@]5(C(=O)O)CC[C@@]4(C)[C@]3(C)CC[C@H]2C1(C)C` [ACETYL OLEANOLIC ACID], the Activity (Hepatocyte [5]) was 16.1 IU/L, the Activity (Hepatocyte [6]) was 17.5 IU/L and the Activity (Hepatocyte [7]) was 27.8 IU/L.
For `COC(=O)[C@]12CC[C@@H](C)[C@H](C)[C@H]1C1=CC[C@@H]3[C@@]4(C)C[C@@H](OC(C)=O)C(=O)[C@@](C)(C=O)[C@@H]4CC[C@@]3(C)[C@]1(C)CC2`, the Activity (Rattus norvegicus) was 66.4%.
For `CC1(C)C[C@H]2C3=CC[C@@H]4[C@@]5(C)CCC(=O)C(C)(C)C5CC[C@@]4(C)[C@]3(C)CC[C@@]2(C(=O)O)CC1=O` (stereo partly specified), the Activity (Mus musculus [8]) was 43%.
Compound `C[C@@H]1CC[C@]2(C(=O)O[C@@H]3O[C@H](CO)[C@@H](O)[C@H](O)[C@H]3O)CC[C@]3(C)C(=CC[C@@H]4[C@@]5(C)C[C@@H](O)[C@H](O)C(C)(C)[C@@H]5CC[C@]43C)[C@@H]2[C@]1(C)O` has an inhibition in vivo at 100 mg/kg (Mus musculus [9]) of 71.1%, an IC50 (Hepatocyte [10]) of 35.5 µM and an inhibition in vivo at 100 mg/kg (Mus musculus [11]) of 65.2%. The IC50 (Hepatocyte [12]) was 55.7 µM.
For `CC1(C)CC[C@]2(C(=O)O[C@@H]3O[C@H](CO)[C@@H](O)[C@H](O)[C@H]3O)CC[C@]3(C)C(=CC[C@@H]4[C@@]5(C)CC[C@H](O[C@@H]6O[C@H](CO)[C@@H](O)[C@H](O)[C@H]6O)C(C)(C(=O)O)[C@@H]5CC[C@]43C)[C@@H]2C1` (stereo partly specified), the Activity [13] was 279 IU/L and the Activity [3] was 271 IU/L.
With `CC1=C(C)[C@H]2C3=CC[C@@H]4[C@@]5(C)C[C@@H](O)[C@H](O)[C@@](C)(CO)[C@@H]5CC[C@@]4(C)[C@]3(C)CC[C@@]2(C(=O)O[C@@H]2O[C@H](CO)[C@@H](O)[C@H](O)[C@H]2O)CC1` the Activity (Hepatocyte [14]) was 8.3% and the IC50 (Hepatocyte [12]) was 33.6 µM.
In the case of `CC1(C)C[C@H]2C3=C[C@@H](O)[C@@H]4[C@@]5(C)CCC(=O)C(C)(C)C5CC[C@@]4(C)[C@]3(C)CC[C@@]2(C(=O)O)CC1=O` (stereo partly specified), the Activity (Mus musculus [8]) is reported as 24%.
`C=C(C)[C@@H]1CC[C@]2(C(=O)O[C@@H]3O[C@H](CO)[C@@H](O)[C@H](O)[C@H]3O)CC[C@]3(C)[C@H](CC[C@@H]4[C@@]5(C)C[C@@H](O)[C@H](O)C(C)(C)[C@@H]5CC[C@]43C)[C@@H]12` gave an Activity (Hepatocyte [15]) of 37.6%.
`C=C(C)[C@@H]1CC[C@]2(C(=O)O[C@@H]3O[C@H](CO)[C@@H](O)[C@H](O)[C@H]3O)CC[C@]3(C)[C@H](CC[C@@H]4[C@@]5(C)C[C@@H](O)[C@H](O)[C@](C)(CO)[C@@H]5CC[C@]43C)[C@@H]12` showed an Activity (Hepatocyte [15]) of 40.9%.
